Results reported in ChEMBL document CHEMBL3045063, “Synthesis and cytostatic evaluation of some 2-(5-substituted-2-oxoindolin-3-ylidene)-N-substituted hydrazine carbothioamide” (Med Chem Res, 2011).

How the values were obtained:
Format in all cases: functional, cell-based
[1] = test system: CCRF-CEM; test: Cytostatic activity against Homo sapiens (human) CEM cells after 72 hr
[2] = test system: MOLT-4; test: Cytostatic activity against Homo sapiens (human) Molt4/C8 cells after 72 hr; details: MOLT-4, 72 h
[3] = test system: L1210; test: Cytostatic activity against Mus musculus (mouse) L1210 cells after 48 hr; details: L1210, 48 h

`Cc1ccc(CN2C(=O)/C(=N\NC(=S)Nc3ccc(Cl)cc3)c3cc(Cl)ccc32)cc1` gave an IC50 [1] of 18 µM, an IC50 [2] of 5.8 µM and an IC50 [3] of 9.8 µM.
`O=C1/C(=N\NC(=S)Nc2ccc(Cl)cc2)c2cc(Cl)ccc2N1Cc1ccc(Cl)cc1` showed an IC50 [1] of 68 µM, an IC50 [2] of 58 µM and an IC50 [3] of 124 µM.
`O=C1Nc2ccc(F)cc2/C1=N/NC(=S)Nc1ccc(Cl)cc1` was tested, and the IC50 [1] was 25 µM, the IC50 [2] was 14 µM and the IC50 [3] was 34 µM.
In the case of `O=C1/C(=N\NC(=S)Nc2ccc(Cl)cc2)c2cc(Br)ccc2N1Cc1ccc(Cl)cc1`, the IC50 [1] is reported as 392 µM, the IC50 [2] is reported as 280 µM and the IC50 [3] is reported as at least 500 µM.
For `Cc1ccc(NC(=S)N/N=C2\C(=O)Nc3ccc(Br)cc32)cc1`, the IC50 [1] was 6.8 µM, the IC50 [2] was 4.9 µM and the IC50 [3] was 9.6 µM.
`Cc1ccc(CN2C(=O)/C(=N\NC(=S)Nc3ccc(Cl)cc3)c3cc(Br)ccc32)cc1` showed an IC50 [1] of 98 µM, an IC50 [2] of 74 µM and an IC50 [3] of 193 µM.
For `O=C1/C(=N\NC(=S)Nc2ccc(Cl)cc2)c2cc(Br)ccc2N1Cc1ccc(F)cc1`, the IC50 [1] was 61 µM, the IC50 [2] was 48 µM and the IC50 [3] was 196 µM.
Molecule `O=C1Nc2cc(Cl)c(F)cc2/C1=N/NC(=S)Nc1ccc(Cl)cc1` has an IC50 [1] of 48 µM, an IC50 [2] of 43 µM and an IC50 [3] of 69 µM.
Molecule `O=C1Nc2ccc(Br)cc2/C1=N/NC(=S)Nc1ccc(Cl)cc1` has an IC50 [1] of 61 µM, an IC50 [2] of 29 µM and an IC50 [3] of 88 µM.
`Cc1ccc(NC(=S)N/N=C2\C(=O)Nc3ccc(F)cc32)cc1` gave an IC50 [1] of 4.8 µM, an IC50 [2] of 3 µM and an IC50 [3] of 8.2 µM.
`O=C1/C(=N\NC(=S)Nc2ccc(Cl)cc2)c2cc(F)ccc2N1Cc1ccc(F)cc1` showed an IC50 [1] of 56 µM, an IC50 [2] of 47 µM and an IC50 [3] of 154 µM.
For `N[C@@H](Cc1ccc(N(CCCl)CCCl)cc1)C(=O)O` [MELPHALAN], the IC50 [2] was 3.2 µM.
In the case of `Cc1ccc(NC(=S)N/N=C2\C(=O)N(Cc3ccc(F)cc3)c3ccc(Br)cc32)cc1`, the IC50 [1] is reported as 132 µM, the IC50 [2] is reported as 57 µM and the IC50 [3] is reported as 190 µM.
`Cc1ccc(NC(=S)N/N=C2\C(=O)Nc3cc(Cl)c(F)cc32)cc1` was tested, and the IC50 [1] was 132 µM, the IC50 [2] was 112 µM and the IC50 [3] was 166 µM.
`O=C1/C(=N\NC(=S)Nc2ccc(Cl)cc2)c2cc(Cl)ccc2N1Cc1ccc(F)cc1` was tested, and the IC50 [1] was 50 µM, the IC50 [2] was 48 µM and the IC50 [3] was 103 µM.
`Cc1ccc(NC(=S)N/N=C2\C(=O)N(Cc3ccc(Cl)cc3)c3ccc(Br)cc32)cc1` showed an IC50 [1] of at least 500 µM, an IC50 [2] of 288 µM and an IC50 [3] of at least 500 µM.
`O=C1Nc2ccc(Cl)cc2/C1=N/NC(=S)Nc1ccc(Cl)cc1` was tested, and the IC50 [1] was 61 µM, the IC50 [2] was 64 µM and the IC50 [3] was 108 µM.
Work on `Cc1ccc(CN2C(=O)/C(=N\NC(=S)Nc3ccc(C)cc3)c3cc(Br)ccc32)cc1` yielded an IC50 [1] of at least 500 µM, an IC50 [2] of 393 µM and an IC50 [3] of at least 500 µM.
For `Cc1ccc(NC(=S)N/N=C2\C(=O)N(Cc3ccc(F)cc3)c3ccc(F)cc32)cc1`, the IC50 [1] was 2.5 µM, the IC50 [2] was 1.5 µM and the IC50 [3] was 6.2 µM.
